Organism: Rattus norvegicus
Test: DrugMatrix - Regimen: Daily Repeat
Assay type: toxicity, organism-based, Sprague-Dawley
Parameters: regimen Daily Repeat, gender Male, age 6-8 weeks
Settings: in vivo, po, route oral GAVAGE, vehicle .5 % CMC; for ABSOLUTE BASOPHIL / ABSOLUTE EOSINOPHIL / ABSOLUTE LYMPHOCYTE / ABSOLUTE MONOCYTE / ABSOLUTE SEGMENTED NEUTROPHIL / BASOPHIL / EOSINOPHIL / ERYTHROCYTE COUNT / HEMATOCRIT / HEMOGLOBIN / LEUKOCYTE COUNT / LYMPHOCYTE / MEAN CORPUSCULAR HEMOGLOBIN / MEAN CORPUSCULAR HEMOGLOBIN CONCENTRATION / MEAN CORPUSCULAR VOLUME / MONOCYTE / NEUTROPHIL / NUCLEATED RED BLOOD CELLS / PLATELET COUNT: tissue Blood; for ALANINE AMINOTRANSFERASE / ALBUMIN / ALKALINE PHOSPHATASE / ASPARTATE AMINOTRANSFERASE / BLOOD UREA NITROGEN / CARBON DIOXIDE / CHLORIDE / CHOLESTEROL / CREATINE PHOSPHOKINASE / CREATININE / GLUCOSE / LACTATE DEHYDROGENASE / LIPASE / PHOSPHORUS / POTASSIUM / SODIUM / TOTAL BILIRUBIN / TOTAL PROTEIN / URIC ACID: tissue Plasma
[1] = 0 mg/kg, 72 h, dose level Control, time 3 day
[2] = 0 mg/kg, 120 h, dose level Control, time 5 day
[3] = 1 mg/kg, 72 h, dose level Low, time 3 day

## CCOc1nc2cccc(C(=O)O)c2n1Cc1ccc(-c2ccccc2-c2nnn[nH]2)cc1
[1]
  ABSOLUTE BASOPHIL: 0 CELLS/uL
  ABSOLUTE EOSINOPHIL: 35.67 CELLS/uL
  ABSOLUTE LYMPHOCYTE: 9125.17 CELLS/uL
  ABSOLUTE MONOCYTE: 50.17 CELLS/uL
  ABSOLUTE SEGMENTED NEUTROPHIL: 722.33 CELLS/uL
  BASOPHIL: 0%
  EOSINOPHIL: 0.33%
  ERYTHROCYTE COUNT: 5.35 x10E6/uL
  HEMATOCRIT: 33.58%
  HEMOGLOBIN: 13.35 G/DL
  LEUKOCYTE COUNT: 9.93 x10E3/uL
  LYMPHOCYTE: 91.67%
  MEAN CORPUSCULAR HEMOGLOBIN: 25 pg
  MEAN CORPUSCULAR HEMOGLOBIN CONCENTRATION: 39.8 G/DL
  MEAN CORPUSCULAR VOLUME: 62.77 fL
  MONOCYTE: 0.67%
  NEUTROPHIL: 7.33%
  NUCLEATED RED BLOOD CELLS: 0 /100WBC
  PLATELET COUNT: 866.17 x10E3/uL
  ALANINE AMINOTRANSFERASE: 57.17 u/L
  ALBUMIN: 4.22 G/DL
  ALKALINE PHOSPHATASE: 391 u/L
  ASPARTATE AMINOTRANSFERASE: 95.17 u/L
  BLOOD UREA NITROGEN: 13.67 mg/dL
  CARBON DIOXIDE: 30 mmol/L
  CHLORIDE: 102.5 MEQ/L
  CHOLESTEROL: 72 mg/dL
  CREATINE PHOSPHOKINASE: 485.67 u/L
  CREATININE: 0.27 mg/dL
  GLUCOSE: 152 mg/dL
  LACTATE DEHYDROGENASE: 372.67 u/L
  LIPASE: 9.83 u/L
  PHOSPHORUS: 12.47 mg/dL
  POTASSIUM: 6.81 MEQ/L
  SODIUM: 144.1 MEQ/L
  TOTAL BILIRUBIN: 0.23 mg/dL
  TOTAL PROTEIN: 5.93 G/DL
  URIC ACID: 1.9 mg/dL
[2]
  ABSOLUTE BASOPHIL: 0 CELLS/uL
  ABSOLUTE EOSINOPHIL: 67.33 CELLS/uL
  ABSOLUTE LYMPHOCYTE: 11419.17 CELLS/uL
  ABSOLUTE MONOCYTE: 203.17 CELLS/uL
  ABSOLUTE SEGMENTED NEUTROPHIL: 1327 CELLS/uL
  BASOPHIL: 0%
  EOSINOPHIL: 0.5%
  ERYTHROCYTE COUNT: 5.65 x10E6/uL
  HEMATOCRIT: 35.3%
  HEMOGLOBIN: 13.98 G/DL
  LEUKOCYTE COUNT: 13.02 x10E3/uL
  LYMPHOCYTE: 88%
  MEAN CORPUSCULAR HEMOGLOBIN: 24.78 pg
  MEAN CORPUSCULAR HEMOGLOBIN CONCENTRATION: 39.63 G/DL
  MEAN CORPUSCULAR VOLUME: 62.58 fL
  MONOCYTE: 1.33%
  NEUTROPHIL: 10.17%
  NUCLEATED RED BLOOD CELLS: 0 /100WBC
  PLATELET COUNT: 1213.83 x10E3/uL
  ALANINE AMINOTRANSFERASE: 49.67 u/L
  ALBUMIN: 4.28 G/DL
  ALKALINE PHOSPHATASE: 362.33 u/L
  ASPARTATE AMINOTRANSFERASE: 99 u/L
  BLOOD UREA NITROGEN: 20.67 mg/dL
  CARBON DIOXIDE: 26.33 mmol/L
  CHLORIDE: 102 MEQ/L
  CHOLESTEROL: 63.83 mg/dL
  CREATINE PHOSPHOKINASE: 481.83 u/L
  CREATININE: 0.21 mg/dL
  GLUCOSE: 158 mg/dL
  LACTATE DEHYDROGENASE: 656.33 u/L
  LIPASE: 10.67 u/L
  PHOSPHORUS: 12.27 mg/dL
  POTASSIUM: 6.17 MEQ/L
  SODIUM: 143.35 MEQ/L
  TOTAL BILIRUBIN: 0.17 mg/dL
  TOTAL PROTEIN: 6.13 G/DL
  URIC ACID: 1.48 mg/dL
[3]
  ABSOLUTE BASOPHIL: 0 CELLS/uL
  ABSOLUTE EOSINOPHIL: 0 CELLS/uL
  ABSOLUTE LYMPHOCYTE: 10188.33 CELLS/uL
  ABSOLUTE MONOCYTE: 75.33 CELLS/uL
  ABSOLUTE SEGMENTED NEUTROPHIL: 1069.67 CELLS/uL
  BASOPHIL: 0%
  EOSINOPHIL: 0%
  ERYTHROCYTE COUNT: 5.49 x10E6/uL
  HEMATOCRIT: 34.4%
  HEMOGLOBIN: 13.73 G/DL
  LEUKOCYTE COUNT: 11.33 x10E3/uL
  LYMPHOCYTE: 89.67%
  MEAN CORPUSCULAR HEMOGLOBIN: 25.03 pg
  MEAN CORPUSCULAR HEMOGLOBIN CONCENTRATION: 39.93 G/DL
  MEAN CORPUSCULAR VOLUME: 62.7 fL
  MONOCYTE: 0.67%
  NEUTROPHIL: 9.67%
  NUCLEATED RED BLOOD CELLS: 0 /100WBC
  PLATELET COUNT: 1183.67 x10E3/uL
  ALANINE AMINOTRANSFERASE: 53.67 u/L
  ALBUMIN: 4.23 G/DL
  ALKALINE PHOSPHATASE: 410.67 u/L
  ASPARTATE AMINOTRANSFERASE: 90 u/L
  BLOOD UREA NITROGEN: 16.67 mg/dL
  CARBON DIOXIDE: 29 mmol/L
  CHLORIDE: 102.67 MEQ/L
  CHOLESTEROL: 81 mg/dL
  CREATINE PHOSPHOKINASE: 371 u/L
  CREATININE: 0.23 mg/dL
  GLUCOSE: 155.67 mg/dL
  LACTATE DEHYDROGENASE: 328 u/L
  LIPASE: 8 u/L
  PHOSPHORUS: 12.13 mg/dL
  POTASSIUM: 6.17 MEQ/L
  SODIUM: 143.6 MEQ/L
  TOTAL BILIRUBIN: 0.2 mg/dL
  TOTAL PROTEIN: 5.9 G/DL
  URIC ACID: 1.6 mg/dL
